Several values for one entry are separate records, joined by “and”; a condition that tells them apart may be missing. Equal values may be shown once. Toxic doses and inconclusive results are not listed. How the source made its calls: active means survival T/C of 150% or more; inactive means T/C below 125% in these data.
Tested on: BDF1 mice, L1210 leukemia sc, survival T/C
Assay: NCI In Vivo Anticancer Drug Screen. Data for tumor model L1210 Leukemia (subcutaneous) in B6D2F1 (BDF1) mice
Conditions: endpoint: median survival time, higher = longer survival
Summary of the method: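 Tumors were transplanted into mice, the animals were treated with compound, survival or tumor size was then measured, and treated values were divided by vehicle-control values.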

Measured: T/C

O=NN(CCCl)C(=O)NCCCl
inactive: dose: 0.65 mg/kg/injection, schedule: Q01DX Z (sc), vehicle: methylcellulose (MC) 115 % of control | dose: 0.75 mg/kg/injection, schedule: Q01DX009 (ip), vehicle: saline 110 % of control | dose: 1.08 mg/kg/injection, schedule: Q## X Z (sc), vehicle: methylcellulose (MC) 107 % of control | dose: 1.5 mg/kg/injection, schedule: Q01DX009 (ip), vehicle: saline 120 % of control | dose: 1.8 mg/kg/injection, schedule: Q07DX Z (sc), vehicle: methylcellulose (MC) 107 % of control | dose: 1.8 mg/kg/injection, schedule: Q## X Z (sc), vehicle: methylcellulose (MC) 115 % of control | dose: 3.0 mg/kg/injection, schedule: Q01DX001 (ip), vehicle: saline 119 % of control | dose: 3.0 mg/kg/injection, schedule: Q01DX001 (iv), vehicle: saline 123 % of control | dose: 3.0 mg/kg/injection, schedule: Q07DX Z (sc), vehicle: methylcellulose (MC) 115 % of control | dose: 3.0 mg/kg/injection, schedule: Q## X Z (sc), vehicle: methylcellulose (MC) 119 % of control | dose: 3.0 mg/kg/injection, schedule: Q## X Z (sc), vehicle: saline 123 % of control | dose: 5.0 mg/kg/injection, schedule: Q01DX001 (sc), vehicle: saline 115 % of control | dose: 5.0 mg/kg/injection, schedule: Q07DX Z (sc), vehicle: saline 120 % of control and 123 % of control | dose: 14.0 mg/kg/injection, schedule: Q07DX Z (sc), vehicle: other 88 % of control | dose: 24.0 mg/kg/injection, schedule: Q01DX009 (ip), vehicle: saline 115 % of control | dose: 60.0 mg/kg/injection, schedule: Q01DX001 (ip), vehicle: saline 124 % of control | dose: 65.0 mg/kg/injection, schedule: Q01DX001 (oral), vehicle: saline 114 % of control | dose: 80.0 mg/kg/injection, schedule: Q01DX001 (sc), vehicle: methylcellulose (MC) 110 % of control | dose: 80.0 mg/kg/injection, schedule: Q01DX001 (sc), vehicle: saline 110 % of control | dose: 108.0 mg/kg/injection, schedule: Q01DX001 (oral), vehicle: saline 104 % of control | dose: 120.0 mg/kg/injection, schedule: Q01DX001 (sc), vehicle: methylcellulose (MC) 100 % of control | dose: 120.0 mg/kg/injection, schedule: Q01DX001 (sc), vehicle: saline 105 % of control | dose: 180.0 mg/kg/injection, schedule: Q01DX001 (oral), vehicle: saline 95 % of control
active: dose: 1.8 mg/kg/injection, schedule: Q01DX Z (sc), vehicle: methylcellulose (MC) 184 % of control | dose: 3.0 mg/kg/injection, schedule: Q01DX009 (ip), vehicle: saline 190 % of control | dose: 3.0 mg/kg/injection, schedule: Q01DX Z (oral), vehicle: saline 205 % of control | dose: 3.0 mg/kg/injection, schedule: Q01DX Z (sc), vehicle: methylcellulose (MC) 223 % of control | dose: 5.0 mg/kg/injection, schedule: Q01DX Z (oral), vehicle: saline 521 % of control | dose: 5.0 mg/kg/injection, schedule: Q01DX Z (sc), vehicle: methylcellulose (MC) 200 % of control | dose: 5.0 mg/kg/injection, schedule: Q## X Z (sc), vehicle: methylcellulose (MC) 173 % of control | dose: 6.0 mg/kg/injection, schedule: Q01DX009 (ip), vehicle: saline 210 % of control | dose: 8.4 mg/kg/injection, schedule: Q01DX001 (ip), vehicle: saline 233 % of control | dose: 8.4 mg/kg/injection, schedule: Q01DX001 (iv), vehicle: saline 247 % of control | dose: 8.4 mg/kg/injection, schedule: Q01DX Z (oral), vehicle: saline 284 % of control | dose: 8.4 mg/kg/injection, schedule: Q01DX Z (sc), vehicle: methylcellulose (MC) 188 % of control | dose: 8.4 mg/kg/injection, schedule: Q07DX Z (sc), vehicle: methylcellulose (MC) 161 % of control | dose: 8.4 mg/kg/injection, schedule: Q07DX Z (sc), vehicle: other 305 % of control | dose: 8.4 mg/kg/injection, schedule: Q07DX Z (sc), vehicle: saline 161 % of control and 210 % of control and 252 % of control | dose: 8.4 mg/kg/injection, schedule: Q16DX002 (ip), vehicle: saline 172 % of control | dose: 8.4 mg/kg/injection, schedule: Q## X Z (sc), vehicle: methylcellulose (MC) 250 % of control | dose: 8.4 mg/kg/injection, schedule: Q## X Z (sc), vehicle: saline 246 % of control | dose: 10.0 mg/kg/injection, schedule: Q01DX001 (sc), vehicle: methylcellulose (MC) 255 % of control | dose: 10.0 mg/kg/injection, schedule: Q01DX001 (sc), vehicle: saline 185 % of control | dose: 10.8 mg/kg/injection, schedule: Q01DX001 (ip), vehicle: saline 150 % of control | dose: 10.8 mg/kg/injection, schedule: Q01DX001 (sc), vehicle: saline 248 % of control and 250 % of control | dose: 10.8 mg/kg/injection, schedule: Q07DX003 (sc), vehicle: saline 274 % of control and 275 % of control | dose: 14.0 mg/kg/injection, schedule: Q01DX001 (iv), vehicle: saline 209 % of control | dose: 14.0 mg/kg/injection, schedule: Q01DX Z (oral), vehicle: saline 194 % of control | dose: 14.0 mg/kg/injection, schedule: Q01DX Z (sc), vehicle: saline 161 % of control and 273 % of control and 285 % of control | dose: 14.0 mg/kg/injection, schedule: Q01HX002 (ip), vehicle: saline 315 % of control | dose: 14.0 mg/kg/injection, schedule: Q07DX Z (sc), vehicle: methylcellulose (MC) 173 % of control | dose: 14.0 mg/kg/injection, schedule: Q07DX Z (sc), vehicle: saline 200 % of control | dose: 14.0 mg/kg/injection, schedule: Q16DX002 (ip), vehicle: saline 315 % of control | dose: 14.0 mg/kg/injection, schedule: Q## X Z (sc), vehicle: methylcellulose (MC) 315 % of control | dose: 14.0 mg/kg/injection, schedule: Q## X Z (sc), vehicle: saline 315 % of control | dose: 18.0 mg/kg/injection, schedule: Q01DX001 (ip), vehicle: saline 181 % of control and 200 % of control | dose: 18.0 mg/kg/injection, schedule: Q01DX001 (sc), vehicle: saline 310 % of control and 352 % of control | dose: 18.0 mg/kg/injection, schedule: Q07DX003 (sc), vehicle: saline 645 % of control and 660 % of control | dose: 20.0 mg/kg/injection, schedule: Q01DX001 (sc), vehicle: methylcellulose (MC) 240 % of control | dose: 20.0 mg/kg/injection, schedule: Q01DX001 (sc), vehicle: saline 270 % of control | dose: 23.0 mg/kg/injection, schedule: Q01DX001 (ip), vehicle: saline 480 % of control | dose: 23.0 mg/kg/injection, schedule: Q01DX001 (iv), vehicle: saline 423 % of control | dose: 23.0 mg/kg/injection, schedule: Q01DX Z (oral), vehicle: saline 157 % of control | dose: 23.0 mg/kg/injection, schedule: Q01HX002 (ip), vehicle: saline 315 % of control | dose: 23.0 mg/kg/injection, schedule: Q07DX Z (sc), vehicle: methylcellulose (MC) 184 % of control | dose: 23.0 mg/kg/injection, schedule: Q07DX Z (sc), vehicle: other 555 % of control | dose: 23.0 mg/kg/injection, schedule: Q07DX Z (sc), vehicle: saline 438 % of control and 631 % of control and 645 % of control | dose: 23.0 mg/kg/injection, schedule: Q16DX002 (ip), vehicle: saline 315 % of control | dose: 23.0 mg/kg/injection, schedule: Q## X Z (sc), vehicle: saline 284 % of control | dose: 30.0 mg/kg/injection, schedule: Q01DX001 (ip), vehicle: saline 218 % of control and 483 % of control | dose: 30.0 mg/kg/injection, schedule: Q01DX001 (sc), vehicle: saline 410 % of control and 441 % of control | dose: 30.0 mg/kg/injection, schedule: Q07DX003 (sc), vehicle: saline 295 % of control and 303 % of control | dose: 39.0 mg/kg/injection, schedule: Q01DX001 (ip), vehicle: saline 309 % of control | dose: 39.0 mg/kg/injection, schedule: Q07DX Z (sc), vehicle: other 294 % of control | dose: 39.0 mg/kg/injection, schedule: Q07DX Z (sc), vehicle: saline 173 % of control and 315 % of control | dose: 40.0 mg/kg/injection, schedule: Q01DX001 (sc), vehicle: methylcellulose (MC) 230 % of control | dose: 40.0 mg/kg/injection, schedule: Q01DX001 (sc), vehicle: saline 195 % of control | dose: 48.0 mg/kg/injection, schedule: Q01DX001 (ip), vehicle: saline 292 % of control | dose: 50.0 mg/kg/injection, schedule: Q01DX001 (ip), vehicle: saline 475 % of control | dose: 50.0 mg/kg/injection, schedule: Q01DX001 (sc), vehicle: saline 205 % of control | dose: 65.0 mg/kg/injection, schedule: Q07DX Z (sc), vehicle: other 205 % of control

Source: PubChem BioAssay AID250 (DTP/NCI, 2004)
